Measurements as given in BindingDB's records for doi:10.1016/0960-894X(95)00135-G (1995).
pIC50: −log10 of the molar value.

test: In vitro inhibitory activity against human neutrophil leukotriene B4 (LTB4) induced Chemotaxis

In order of rising pIC50:
1. CC(Oc1ccc2c(c1)OC[C@H](Cc1cccnc1)[C@@H]2O)c1ccc2ccccc2n1 (stereo partly drawn) [(3S,4S)-3-Pyridin-3-ylmethyl-7-(1-quinolin-2-yl-ethoxy)-chroman-4-ol]  4.42
2. CC(Oc1ccc2c(c1)OC[C@H](Cc1ccccn1)[C@@H]2O)c1ccc2ccccc2n1 (stereo partly drawn) [(3S,4S)-3-Pyridin-2-ylmethyl-7-(1-quinolin-2-yl-ethoxy)-chroman-4-ol]  4.85
3. C[C@H](Oc1ccc2c(c1)OC[C@@H](Cc1cccnc1)[C@@H]2O)c1ccc2ccccc2n1 [(3R,4S)-3-Pyridin-3-ylmethyl-7-((S)-1-quinolin-2-yl-ethoxy)-chroman-4-ol]  5.21
4. C[C@@H](Oc1ccc2c(c1)OC[C@@H](Cc1cccnc1)[C@@H]2O)c1ccc2ccccc2n1 [(3R,4S)-3-Pyridin-3-ylmethyl-7-((R)-1-quinolin-2-yl-ethoxy)-chroman-4-ol]  5.47
5. CC(Oc1ccc2c(c1)OC[C@@H](Cc1ccccn1)[C@@H]2O)c1ccc2ccccc2n1 (stereo partly drawn) [(3R,4S)-3-Pyridin-2-ylmethyl-7-(1-quinolin-2-yl-ethoxy)-chroman-4-ol]  6.66
